# “Also recorded” adds a separate entry of the source. Like-named read-outs stand apart in the source and are kept apart here.
# Key:
# [1] = target: T1, PHD2181-402 (Homo sapiens, UniProt Q9GZT9); assay: bioluminescent succinate detection assay of recombinant PHD2181-402 activity/inhibition; type: biochemical; settings: for fold less effective at inhibiting PHD2181-402 than butyrate: compared with butyrate
# T1 construct: made in house
# Excerpt: To pinpoint if butyrate inhibits PHDs directly, we expressed recombinant PHD derived from the human PHD2 sequence. There are three human PHDs: PHD1, PHD2, and PHD3, with PHD2 being the most abundant and expressed in the majority of tissues, the most important regulator of HIF, particularly HIF-1α, and the only PHD that is embryonically lethal when deleted. PHD1 is exclusively localized to the nucleus, whereas PHD2 is mainly cytoplasmic, and PHD3 is both. […] Sequence comparisons and modeling studies indicate that the PHD2 active site is highly conserved among the PHDs.
# IC50s depend on exact experimental conditions, making direct comparisons and global applications difficult.
# [2] = tested on: PHDs; settings: range across studies, assay conditions vary; read-out: reported IC50s; cited from earlier work
# [3] = tested on: PHD (2-OG accumulation) in T84 IECs; assay: 2-OG levels in T84 cells as biomarker of PHD inhibition; type: cell-based; settings: 3 h, 10 mM butyrate, 30 μM IOX2
# Description: (B) 2-OG concentrations in T84 cells treated with 10 mM butyrate with or without 1 mM MCPA or 30 μM IOX2 for 3 h
# The relationship between butyrate and HIF, were examined whether butyrate influences PHD activity by monitoring 2-OG levels. […] In this, we considered such 2-OG accumulation as a metabolic biomarker of PHD inhibition (FIG. 3A).
# [4] = tested on: HIF-1α / PHDs in murine colon tissue; assay: rectal gavage of butyrate or IOX2 in antibiotic SCFA-depleted mice; type: in vivo; settings: 1 h, 100 mM butyrate, 1.5 mM IOX2
# [5] = tested on: HIF1α in T84 cells; assay: HIF1α immunoblot in T84 cells (MBA vs BA); type: cell-based; settings: for HIF1α stabilization over time (immunoblot): 5 mM BA and MBA, IOX4 positive control
# Description: (A) Structures of butyrate derivatives investigated in initial screen for HIF stabilization. Immunoblot of HIF1a protein levels in Caco-2 cells (B) and T84 cells (C) exposed to veh (HBSS+), […], or 5 mM butyrate derivatives for 6h. (D) Dose response study of HIF1a accumulation in T84 cells treated with decreasing concentrations of MBA and BA for 6 h.
# (A) Immunoblots of HIF1a protein over time after exposure of T84 cells to 5 mM BA and MBA. (B) Mesoscale assay of HIF1a protein over time in caco-2 cells treated with 5 mM MBA compared to veh. (C) HIF1a and HIF target (BNIP3) protein in caco-2 cells exposed to veh (HBSS+), […] or 5 mM MBA. Data are presented as mean+S.E.M, *p<0.05, **p<0.01, ***p<0.001.
# (§1) Endogenous and non-endogenous butyrate derivatives with specifically chosen functional groups at different positions within the small molecule and assess their effects on HIF stabilization (FIG. 21A). To study a small library of butyrate derivatives we employed an electrochemiluminescence based assay to quantify HIF1α levels using the Meso Scale Discovery (HIF1α MSD assay, http://www.mesoscale.com) technology. Similar to the sandwich enzyme-linked immunosorbent assay (ELISA), this technology captures and detects HIF1α protein using two specific antibodies but utilizes electrochemiluminescence-based signal generation and detection. Using lysates from intestinal epithelial cells (IECs) caco-2 and T84 exposed to a physiological relevant concentration of 5 mM butyrate derivatives for 4h, this assay was employed to determine HIF1α protein concentration. A bona-fide and potent PHD2 inhibitor (IOX4) was used to stabilize HIF1α as a positive control. Various butyrate derivatives increased HIF1α relative concentration in both cell lines compared to low signals detected in untreated lysates. […] We decided to focus on this interesting butyrate derivative for further studies.
# (§2) To elucidate the effectiveness of MBA to stabilize HIF1α over time and possibly shine light on how quickly it can be metabolized in-vitro, time-course studies where performed between BA and MBA, IOX4 was used as a positive control. […] Employing the HIF1α MSD assay, we screened for various timepoints in caco-2 cell lysates exposed to MBA (5 mM). […] BNIP3 is involved in cell survival and is a known HIF1α target that is induced through chemical stabilization of HIF or hypoxia. BNIP3 promoter comprises a functional hypoxia response element (HRE) and can be activated by HIF1α.[5] Parallel to our HIF stabilization time course studies, we wanted to assess the transcriptional activity of the stabilized protein over time.
# [6] = tested on: HIF1α in caco-2 cells; assay: HIF1α MSD assay and immunoblot in caco-2 cells; type: cell-based; settings: for BNIP3 immunoblot over time: c2bbe cell lysates, various timepoints
# Description: (A) Structures of butyrate derivatives investigated in initial screen for HIF stabilization. […] (D) Dose response study of HIF1a accumulation in T84 cells treated with decreasing concentrations of MBA and BA for 6 h.
# (A) Immunoblots of HIF1a protein over time after exposure of T84 cells to 5 mM BA and MBA. (B) Mesoscale assay of HIF1a protein over time in caco-2 cells treated with 5 mM MBA compared to veh. […] Data are presented as mean+S.E.M, *p<0.05, **p<0.01, ***p<0.001.
# HIF1a Mesoscale assay of BA derivatives investigated in caco-2 (A) and T84 (B) intestinal epithelial cells (5 mM, 6 h), identifying MBA as a promising candidate in HIF1a stabilization (Veh=HBSS+).
# as §1, §2
# [7] = tested on: HIF target genes in T84 cells; assay: real-time PCR of HIF target genes BNIP3 and CAIX in T84 cells; type: cell-based; settings: 16h
# Description: (A) Exposure of T84 cells to Veh, BA or MBA (5 mM, 16 h) induced HIF target gene expression of CAIX and BNIP3. […] (C) Non-targeting control and T84 HIF1b depleted cells were analyzed for HIF1b expression by western blotting, shown with a representative blot. Quantification of HIF1b decrease was performed using ACTB-normalized densitometry. qPCR data was analyzed by One-way ANOVA with Bonferroni for post hoc correction and presented as mean±S.E.M, **p<0.01, ***p<0.001, ****p<0.0001 of three independent experiments.
# Following these findings, we then explored if the MBA-induced stabilization of HIF was reflected in the transcriptional regulation of target genes. We utilized real-time PCR to study the influence of MBA mediated HIF stabilization in the induction of established HIF targets, BNIP3 (cell survival) and CAIX (pH regulation).
# Furthermore, to confirm MBA-induced HIF transcriptional activity, we quantified the induction of BNIP3 and CAIX by BA or MBA (5 mM, 16h) in lentiviral shRNA-mediated knockdown of HIF1β relative to non-targeting shRNA controls. […] These findings confirm that through MBA exposure, HIF is stabilized and it is transcriptionally active.
# [8] = tested on: HIF regulated targets; assay: intraperitoneal injection in C57BL/6 mice, HIF regulated targets (EPO, GLUT1); type: in vivo; settings: MBA 80 mg/kg, 24h
# Description: Erythropoietin (EPO) is regulated by HIF stabilization. (A) EPO protein in blood serum was assessed by mesoscale assay (n=6-8). qPCR mRNA expression of HIF target mGLUT1 in kidney (B) and colon tissue (C) (n=3-8). Data analyzed by One-way ANOVA with Tukey for post hoc correction and presented as mean±S.E.M of two independent experiments, *p<0.05, **p<0.01, ***p<0.001, ****p<0.0001 […]
# At 24 h, mice were sacrificed followed by exsanguination, extraction of right kidney and distal colon for analysis of HIF stabilization and HIF target gene expression. SHBA induces HIF regulated targets in vivo. Erythropoietin (EPO) is regulated by HIF stabilization. (A) EPO protein in blood serum was assessed by mesoscale assay (n=6-8). (B) qPCR mRNA expression of HIF target mGLUT1 in colon tissue (n=3-4). Data are presented as mean±S.E.M of two independent experiments, *p<0.05, **p<0.01.
# A typical physiologic response to hypoxia is the increase in red blood cell production. Naturally, HIF is in charge of this response by regulating cell-type specific gene expression that leads to increased levels of the hormone erythropoietin (EPO).[10] […] We lastly explored the in-vivo effects of MBA in mediating induction of genes tightly regulated by HIF. […] After 24h of treatment, they were sacrificed and quickly exsanguinated to measure EPO levels in serum. […] Furthermore, we studied the induction of GLUT1, another classic HIF target responsible for the transport of various monosaccharides. Kidney and colon tissue were analyzed by real-time PCR to compare BA and MBA head-to-head. […] These findings support the ability of MBA to stabilize HIF in-vivo leading to the induction of classic target genes and transcription of a tightly regulated protein EPO.
# [9] = target: T1, PHD2181-402; assay: WaterLOGSY 1D NMR binding to PHD2181-402; settings: 10 mM SCFA, 25 μM PHD2181-402
# Excerpt: Protons attached to C4 were selectively inverted and acted as source of magnetization transfer. […] (G) Protons attached to C2 were selectively inverted.
# Measurements were repeated 3 times.
# This method enables sensitive and robust detection of binding (dissociation constants as weak as μM to low mM) based on the magnetization transfer between water molecules, proteins, and ligands of interest in close proximity via dipolar proton-proton cross-relaxation (nuclear Overhauser effect, NOE). […] Binding and non-binding ligands can be distinguished in a WaterLOGSY spectrum via their opposite signs in relation to water for their corresponding peaks.
# This technique allows for mapping of the ligand pharmacophore by monitoring the response of individual protons to an increase of ROEs contribution to the overall cross relaxation rate.
# [10] = calculated from measured IC50 accounting for substrate conversion, n = 4, error: SEM, read-out: True IC50 for PHD2181-402
# T1 sequence (Q9GZT9 181-402): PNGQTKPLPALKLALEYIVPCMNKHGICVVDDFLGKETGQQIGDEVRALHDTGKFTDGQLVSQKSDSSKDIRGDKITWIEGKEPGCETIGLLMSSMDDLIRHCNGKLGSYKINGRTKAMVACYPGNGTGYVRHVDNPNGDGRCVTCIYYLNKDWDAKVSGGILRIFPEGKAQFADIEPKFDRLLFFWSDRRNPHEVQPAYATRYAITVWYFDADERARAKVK
smiles,measurement,setting,value
CCC(CC)C(=O)O [2-Ethylbutyrate],IC50,[1]; [10],77 ± 6 mM
CC(O)CC(=O)O (centres unmarked) [3-Hydroxybutyrate],IC50,[1]; [10],14 ± 1 mM
"COC(=O)CNC(=O)C(=O)OC [DMOG, dimethyloxalylglycine, reference compound]",IC50,"[1]; 1 μM PHD2181-402, 10 μM 2-OG, 10-minute reaction, n=5-12, error: SEM, read-out: true half maximal inhibitory concentration (IC50) for PHD2181-402",1.9 ± 0.5 mM
same,IC50,[2],0.00289 to 4 mM
"O=C(O)CNC(=O)c1c(O)c2ccccc2n(Cc2ccccc2)c1=O [IOX2, reference compound]",2-OG levels compared to control,[3],to lesser extent than butyrate
same,colon tissue 2-OG levels after antibiotics,[4],rescued
same,"mRNA expression of HIF-1α targets Bnip3, Bnip3l, Glu1 after antibiotics",[4],rescued
"CC(C)(C)OC(=O)c1ccc(-n2[nH]cc(-n3ccnn3)c2=O)nc1 [IOX4, reference compound]",HIF1α stabilization over time (immunoblot),[5]; T84 cells,no longer effective at the 72h timepoint
same,BNIP3 immunoblot over time,[6],supported active HIF1α transcription
"O=C(O)CCCS [MBA, 4-Mercaptobutyrate]",HIF1α immunoblot compared with butyrate,"[5]; T84, equimolar concentration (5 mM)",exceeding the capabilities of butyrate
same,HIF1α stabilization over time (immunoblot),[5]; T84 cells,observed clearly up to 72h
same,dose response of HIF1α accumulation,"[5]; T84 cells, decreasing concentrations, 6 h",can stabilize HIF at the low millimolar range
same,HIF target gene induction compared to BA,"[7]; T84, 5 mM",more potent than BA; also recorded: more prominent induction of HIF target genes compared to BA
same,induction of HIF target genes BNIP3 and CAIX,"[7]; T84, 5 mM",significant induction
same,induction of BNIP3 and CAIX in cells lacking HIF1β,"[7]; T84 HIF1β shRNA knockdown, 5 mM",complete loss of induction
same,BNIP3 immunoblot over time,[6],supported active HIF1α transcription
same,HIF1α immunoblot compared with IOX4,"[6]; caco-2, 5 mM MBA vs IOX4 (10 μM)",at least as much as IOX4
same,HIF1α immunoblot compared with butyrate,"[6]; caco-2, equimolar concentration (5 mM)",exceeding the capabilities of butyrate
same,HIF1α relative concentration over time (MSD assay),"[6]; caco-2 cell lysates, 5 mM, up to 72h",rapidly stabilized (3h)
same,HIF1α relative concentration (MSD assay),"[6]; caco-2 lysates, 5 mM, compared with IOX4",exceeded HIF stabilization in caco-2 compared to the potent IOX4 PHD2 inhibitor
same,GLUT1 mRNA in colon tissue,"[8]; IP, BA 73 mg/kg",significantly increased in colon tissue
same,GLUT1 mRNA in kidney,"[8]; IP, BA 73 mg/kg",induction of GLUT1 in kidney
same,EPO concentration in serum,"[8]; one IP injection, compared to vehicle, DMOG and BA",significantly higher concentration of EPO
"CC(=O)O [acetate, Acetic acid, reference compound]",fold less effective at inhibiting PHD2181-402 than butyrate,[1],~10 fold
same,binding to PHD2181-402 by WaterLOGSY,[9],no binding
"CCC(=O)O [propionate, propionic acid, reference compound]",fold less effective at inhibiting PHD2181-402 than butyrate,[1],~10 fold
same,binding to PHD2181-402 by WaterLOGSY,[9],no binding
"CCCCC(=O)O [valerate, valeric acid, reference compound]",fold less effective at inhibiting PHD2181-402 than butyrate,[1],~3 fold
same,binding to PHD2181-402 by WaterLOGSY,[9],no binding

# From patent US20250235418A1, “Butyrate Analogues and Methods of Use for HIF Stabilization and Treatment of Bowel Disease” (THE REGENTS OF THE UNIVERSITY OF COLORADO, A BODY CORPORATE, priority 2022, published 2025)
